Converted amounts (≈) assume the structure as drawn. “And” between values parts separate entries of the source, which are not always exact repeats. Equal entries are not always repeated.
Columns and labels:
Treponema hyodysenteriae = experiment: Growth inhibition, swine dysentery agent; type: cell-based
Polio III virus = type: cell-based; conditions: tissue culture
[1] = tested on: volatile-fatty-acid (VFA) production, rumen; experiment: Ruminant feed-utilization efficiency, VFA ratio treated/control flasks
Excerpt: The efficiency of feed use can be monitored by observing the production and concentration of propionate compounds in the rumen using the method described by Arthur P. Raun in U.S. Pat. No. 3,794,732 (see especially Example 5).

[2] = tested on: Fusobacterium necrophorum 6054A; experiment: Agar-dilution MIC, anaerobic bacteria; type: cell-based; conditions: 24-hour incubation
adult housefly = experiment: Insecticidal activity; conditions: in vivo
[3] = pKa in 66% aqueous dimethylformamide; type: physicochemical
Excerpt: (§1) Antibiotic A80190 has been assigned structure 1 based on X-ray crystallographic studies. A80190 (in its free acid form) has the following characteristics: […]

Mexican bean beetle = experiment: Insecticidal activity; conditions: in vivo
[4] = tested on: Bacteroides fragilis 1936B; experiment: Agar-dilution MIC, anaerobic bacteria; type: cell-based; conditions: 24-hour incubation
Experimental: (§2) One important aspect of the antimicrobial activity of A80190 compounds relates to their activity against anaerobic bacteria. The minimal inhibitory concentrations (MIC's) at which A80190 inhibits various anaerobic bacteria, as determined by standard agar-dilution assay, are summarized in Table VII. End points were read after 24-hour incubation.

[5] = tested on: Bacteroides melaninogenicus 1856/28; experiment: Agar-dilution MIC, anaerobic bacteria; type: cell-based; conditions: 24-hour incubation
Experimental: as §2

[6] = tested on: Bacteroides fragilis 1877; experiment: Agar-dilution MIC, anaerobic bacteria; type: cell-based; conditions: 24-hour incubation
Experimental: as §2

[7] = tested on: Bacteroides corrodens 1874; experiment: Agar-dilution MIC, anaerobic bacteria; type: cell-based; conditions: 24-hour incubation
Experimental: as §2

Bacteroides fragilis 111 = experiment: Agar-dilution MIC, anaerobic bacteria; type: cell-based; conditions: 24-hour incubation
Experimental: as §2

[8] = tested on: Clostridium septicum 1128; experiment: Agar-dilution MIC, anaerobic bacteria; type: cell-based; conditions: 24-hour incubation
Experimental: as §2

[9] = tested on: Clostridium difficile 2994; experiment: Agar-dilution MIC, anaerobic bacteria; type: cell-based; conditions: 24-hour incubation
Experimental: as §2

[10] = tested on: Bacteroides thetaiotaomicron 1438; experiment: Agar-dilution MIC, anaerobic bacteria; type: cell-based; conditions: 24-hour incubation
Experimental: as §2

[11] = tested on: Bacteroides melaninogenicus 2736; experiment: Agar-dilution MIC, anaerobic bacteria; type: cell-based; conditions: 24-hour incubation
Experimental: as §2

[12] = tested on: Fusobacterium symbiosum 1470; experiment: Agar-dilution MIC, anaerobic bacteria; type: cell-based; conditions: 24-hour incubation
mustard = experiment: Herbicidal activity; type: in vivo; conditions: 200 gpa; either pre-emergence or post-emergence
[13] = Ionophorous (ion-transport) activity with cations
[14] = tested on: Eubacterium aerofaciens 1235; experiment: Agar-dilution MIC, anaerobic bacteria; type: cell-based; conditions: 24-hour incubation
blowfly larvae = experiment: Insecticidal activity; conditions: in vivo
[15] = tested on: Clostridium perfringens 81; type: cell-based; conditions: 24-hour incubation
[16] = tested on: Propionibacterium acnes 79; experiment: Agar-dilution MIC, anaerobic bacteria; type: cell-based; conditions: 24-hour incubation
mosquito larvae = experiment: Insecticidal activity; conditions: in vivo
Micrococcus luteus = experiment: Disc-diffusion, zone of inhibition; type: cell-based; conditions: 6-mm pads dipped in 1 mg/ml
Experimental: (§3) The inhibitory activity of A80190 is illustrated in Table VI. Activity was measured by the conventional disc-diffusion method (6-mm pads were dipped in solutions containing 1 mg of compound per ml of solution; pads were placed on agar plates seeded with test organism).

Mycobacterium avium = experiment: Disc-diffusion, zone of inhibition; type: cell-based; conditions: 6-mm pads dipped in 1 mg/ml
Experimental: as §3

Neurospora crassa = experiment: Disc-diffusion, zone of inhibition; type: cell-based; conditions: 6-mm pads dipped in 1 mg/ml
Experimental: as §3

Candida albicans = experiment: Disc-diffusion, zone of inhibition; type: cell-based; conditions: 6-mm pads dipped in 1 mg/ml
Experimental: as §3

[17] = tested on: Saccharomyces pastorianus; experiment: Disc-diffusion, zone of inhibition; type: cell-based; conditions: 6-mm pads dipped in 1 mg/ml
Experimental: as §3

Bacillus subtilis = experiment: Disc-diffusion, zone of inhibition; type: cell-based; conditions: 6-mm pads dipped in 1 mg/ml
Experimental: as §3

Staphylococcus aureus = experiment: Disc-diffusion, zone of inhibition; type: cell-based; conditions: 6-mm pads dipped in 1 mg/ml
Experimental: as §3

two-spotted spider mite = experiment: Acaricidal activity; conditions: in vivo
[18] = tested on: Peptostreptococcus intermedius 1624; experiment: Agar-dilution MIC, anaerobic bacteria; type: cell-based; conditions: 24-hour incubation
[19] = tested on: Bacteroides vulgatis 1211; experiment: Agar-dilution MIC, anaerobic bacteria; type: cell-based; conditions: 24-hour incubation
Caenorhabditis elegans = experiment: Anthelmintic activity; conditions: in vivo
Petococcus prevoti 1281 = experiment: Agar-dilution MIC, anaerobic bacteria; type: cell-based; conditions: 24-hour incubation
pigweed = experiment: Herbicidal activity; type: in vivo; conditions: 200 gpa; either pre-emergence or post-emergence
mitochondrial ATPase = experiment: Inhibition of mitochondrial ATPase in vitro; type: biochemical
Excerpt: In yet another aspect, the A80190 compounds are active as inhibitors of the enzyme ATPase. ATPase, an alkali-metal-sensitive enzyme found in cell membranes, is involved in the energy necessary for active transport. "Active transport" refers to the energy requiring series of operations whereby intracellular and extracellular fluids maintain their compositions. Inhibitors of ATPase reduce the energy required for active transport. In vitro tests have shown that A80190 inhibits mitochondrial ATPase with a half-effective concentration (IC50) of 0.5 μg/ml.

southern armyworm = experiment: Insecticidal activity; conditions: in vivo
Eimeria tenella = experiment: In vitro tissue culture screen, anticoccidial; type: cell-based; design: key: C: cytotoxic; A: active; S: slightly active; N: not active
Excerpt: Anticoccidial activity is an important property of the A80190 compounds. Table VIII summarizes the results of an in vitro tissue culture screen of A-80190 compounds vs. Eimeria tenella.

[20] = tested on: Peptostreptococcus anaerobius 1428; experiment: Agar-dilution MIC, anaerobic bacteria; type: cell-based; conditions: 24-hour incubation
crabgrass = experiment: Herbicidal activity; type: in vivo; conditions: 200 gpa; either pre-emergence or post-emergence
Solubility = type: physicochemical
Excerpt: as §1

[21] = tested on: Peptococcus asaccharolyticus 1302; experiment: Agar-dilution MIC, anaerobic bacteria; type: cell-based; conditions: 24-hour incubation
[22] = tested on: natural and artificial membranes; experiment: Cation permeability of membranes
A. macra = experiment: Resistance to antibiotics, sensitivity discs on seeded agar; type: cell-based, Actinomadura macra
Experimental: (§4) Resistance to antibiotics was measured by padding antibiotic sensitivity discs onto the surface of seeded ISP No. 2 agar plates.
(§5) Table III lists the resistance of the strain to various antibiotics at the concentrations indicated and compares it to that of A. macra.

NRRL 15878 = experiment: as above; type: cell-based, Actinomadura oligospora
Experimental: as §4, §5

CC[C@@H](O)[C@]1(C)C[C@H](C)[C@@](O)([C@H]2C[C@H](C)[C@H]([C@]3(C)C[C@@H](O[C@H]4CC[C@H](OC)[C@@H](C)O4)[C@H]([C@@H]4CC[C@@]5(O[C@H]([C@@H](C)[C@@H](OC)[C@H](C)C(=O)O)[C@H](C)[C@@H](OC)[C@H]5C)O4)O3)O2)O1 [A80190]
inhibits the growth at levels as low as (Treponema hyodysenteriae): 0.39 µg/mL | active at a level of (Polio III virus): 2000 µg/mL | Molar % Acetate (ratio treated/control) ([1]; 0.3 mcg/ml): 0.970 | Molar % Butyrate (ratio treated/control) ([1]; 0.3 mcg/ml): 0.819 | Molar % Propionate (ratio treated/control) ([1]; 0.3 mcg/ml): 1.220 | Total VFA/Control VFA ([1]; 0.3 mcg/ml): 0.967 mM/L | Molar % Acetate (ratio treated/control) ([1]; 1 mcg/ml): 0.986 and 0.892 and 1.016 and 0.926 | Molar % Butyrate (ratio treated/control) ([1]; 1 mcg/ml): 0.851 and 0.813 and 0.706 and 0.529 | Molar % Propionate (ratio treated/control) ([1]; 1 mcg/ml): 1.185 and 1.403 and 1.247 and 1.566 | Total VFA/Control VFA ([1]; 1 mcg/ml): 0.916 mM/L and 0.887 mM/L and 0.857 mM/L and 0.913 mM/L | Molar % Acetate (ratio treated/control) ([1]; 3 mcg/ml): 0.998 | Molar % Butyrate (ratio treated/control) ([1]; 3 mcg/ml): 0.611 | Molar % Propionate (ratio treated/control) ([1]; 3 mcg/ml): 1.368 | Total VFA/Control VFA ([1]; 3 mcg/ml): 0.963 mM/L | MIC [2]: 16 µg/mL (≈ 19.3 µM) | active at levels as low as (adult housefly): 35 ppm | pKa [3]: 6.2 | active at levels as low as (Mexican bean beetle): < 100 ppm | MIC [4]: > 128 µg/mL | MIC [5]: > 128 µg/mL | MIC [6]: > 128 µg/mL | MIC [7]: > 128 µg/mL | MIC (Bacteroides fragilis 111): > 128 µg/mL | MIC [8]: < 0.5 µg/mL | MIC [9]: < 0.5 µg/mL | MIC [10]: > 128 µg/mL | MIC [11]: > 128 µg/mL | MIC [12]: 8 µg/mL (≈ 9.65 µM) | active at (application rate) (mustard): 2 lb/acre | ionophorous effect, cation preference ([13]; 0.2 μg/ml, Cs+ vs Na+): even greater ionophorous effect with Cs^+ than with Na^+ as cation | ionophorous activity ([13]; 0.5 μg/ml): showed ionophorous activity | ionophorous activity, cation preference ([13]; 0.5 μg/ml, Na+, K+ and Rb+ vs Cs+ or Li+): activity with Na^+, K^+ and Rb^+ was better than that with Cs^+ or Li^+ | MIC [14]: < 0.5 µg/mL | active at levels as low as (blowfly larvae): 35 ppm | MIC [15]: < 0.5 µg/mL | MIC [16]: 1 µg/mL (≈ 1.21 µM) | active at levels as low as (mosquito larvae): < 50 ppm | Zone of Inhibition (Micrococcus luteus): 20 mm diameter | Zone of Inhibition (Mycobacterium avium): 21 mm diameter | Zone of Inhibition (Neurospora crassa): 14 mm diameter | Zone of Inhibition (Candida albicans): 14 mm diameter | Zone of Inhibition [17]: 10 mm diameter | Zone of Inhibition (Bacillus subtilis): 23 mm diameter | Zone of Inhibition (Staphylococcus aureus): 17 mm diameter | active when applied at a rate as low as (two-spotted spider mite): 25 ppm | MIC [18]: 1 µg/mL (≈ 1.21 µM) | MIC [19]: 16 µg/mL (≈ 19.3 µM) | active at levels as low as (Caenorhabditis elegans): 20 ppm | MIC (Petococcus prevoti 1281): < 0.5 µg/mL | active at (application rate) (pigweed): 2 lb/acre | half-effective concentration (IC50) (mitochondrial ATPase): 0.5 µg/mL | active at levels as low as (southern armyworm): < 100 ppm | Activity vs. Eimeria tenella In Vitro (Eimeria tenella; 0.008 μg/ml): A | Activity vs. Eimeria tenella In Vitro (Eimeria tenella; 0.04 μg/ml): A | Activity vs. Eimeria tenella In Vitro (Eimeria tenella; 0.2 μg/ml): A | Activity vs. Eimeria tenella In Vitro (Eimeria tenella; 1 μg/ml): C | Activity vs. Eimeria tenella In Vitro (Eimeria tenella; 5 μg/ml): C | MIC [20]: 1 µg/mL (≈ 1.21 µM) | active at (application rate) (crabgrass): 2 lb/acre | Solubility (Solubility; organic solvents): soluble in lower alcohols such as methanol, ketones such as acetone, esters such as ethyl acetate, halogenated hydrocarbons such as chloroform and hydrocarbons such as diethyl ether, benezene, toluene and warm hexane | Solubility (Solubility; water): Insoluble in water | MIC [21]: 1 µg/mL (≈ 1.21 µM) | cation permeability [22]: alters the cation permeability of both natural and artificial membranes

CCC[C@@H]1C[C@@H](C(=O)N[C@@H]([C@H]2O[C@H](SC)[C@H](O)[C@@H](O)[C@H]2O)[C@@H](C)O)N(C)C1 [Lincomycin]
Resistance to Antibiotics (A. macra; 2 μg): +

NC[C@@H]1O[C@H](O[C@H]2[C@@H](O)[C@H](O[C@@H]3[C@@H](O)[C@H](N)C[C@H](N)[C@H]3O[C@H]3O[C@H](CN)[C@@H](O)[C@H](O)[C@H]3N)O[C@@H]2CO)[C@H](N)[C@@H](O)[C@@H]1O [Neomycin]
Resistance to Antibiotics (NRRL 15878; 30 μg): - | Resistance to Antibiotics (A. macra; 30 μg): -

NC[C@H]1O[C@H](O[C@H]2[C@H](O)[C@@H](O[C@H]3O[C@H](CO)[C@@H](O)[C@H](N)[C@H]3O)[C@H](N)C[C@@H]2N)[C@H](N)C[C@@H]1O [Tobramycin]
Resistance to Antibiotics (A. macra; 10 μg): -

Oleandomycin
Resistance to Antibiotics (NRRL 15878; 15 μg): -

Source: patent publication US4582822A, “Antibiotic A80190, pharmaceutical compositions containing same and method of use” (Eli Lilly and Company, priority 1984, dated 1986)
